Experimental data taken from patent US9132111B2, “Topical antimicrobial compositions” (priority 2011, dated 2015).

Legend:
Type in all cases: cell-based
[1] = system: Candida albicans ATCC 10231; assay: Bactericidal effect of antimicrobial composition against Candida albicans
Description: 1) Testing strain: Candida albicans ATCC 10231, the 5-6 generations; provide by the “Reserve Center of Chinese Microbial Reservation Committee”.
The testing sample was diluted for 2, 4, 8, 16, 32, 64, 128 and […] times using standard hard water, then reacted with ATCC 10231 for 1 min, 5 min, 10 min.
(§1) 2. Testing Methods and Standards:
(§2) <<Technical Standard for Disinfection>> (2002 Edition)
(§3) GB15979-2002 <<Technical standard for testing disinfection product>> “Procedures for testing bactericide effect”
The bactericidal effect of antimicrobial composition against Candida albicans ATCC10231 at 20±1° C. temperature is shown in table 6.

[2] = system: Staphylococcus aureus ATCC6538; assay: Bactericide effect of antimicrobial composition against Staphylococcus aureus
Description: 1) Testing strain: Staphylococcus aureus ATCC6538, 5-6th generations, provided by the reserve center of China microbial reservation committee.
The testing sample was diluted for 2, 4, 8, 16, 32, 64, 128 and […] folds using standard hard water, then reacted with ATCC6538 for 1 min, 5 min, 10 min.
as §1, §2, §3

Eschetichia coli 8099 = assay: Bactericide effect of antimicrobial composition against Eschetichia coli
Description: 1) Testing strain: Eschetichia coli 8099, the 5-6 generations were used; provide by the “Reserve Center of Chinese Microbial Reservation Committee”.
The testing sample was diluted for 2, 4, 8, 16, 32, 64, 128 and 256 folds using standard hard water, then reacted with Eschetichia coli 8099 for 1 min, 5 min, 10 min.
as §1, §2, §3

Work on “N,N-di-n-decyl-N,N-dimethyl-ammonium 5-oxopyrrolidine-2-carboxylate [DDAPC]” yielded a minimum inhibiting concentrations ([1]; reacted 1 min) of 0.0016%, a minimum inhibiting concentrations ([1]; reacted 5 min) of 0.0008% and a minimum inhibiting concentrations ([1]; reacted 10 min) of 0.0004%. It also gave a minimum inhibiting concentrations ([2]; reacted 1 min) of 0.0016%, a minimum inhibiting concentrations ([2]; reacted 5 min) of 0.0004% and a minimum inhibiting concentrations ([2]; reacted 10 min) of 0.0004%. The minimum inhibiting concentrations (Eschetichia coli 8099; reacted 1 min) was 0.006%, the minimum inhibiting concentrations (Eschetichia coli 8099; reacted 5 min) was 0.003% and the minimum inhibiting concentrations (Eschetichia coli 8099; reacted 10 min) was 0.003%.
